Test results as given in patent US20260272801A1, “BIOCATALYTIC SYNTHESIS OF UNNATURAL MYCOSPORINE-LIKE AMINO ACIDS” (University of Florida Research Foundation, Incorporated, priority 2022, published 2026).
Entries after “also recorded” stand apart in the source; their conditions may differ.

Experiments:
MysD = test: In vitro MysD reaction with amino acid substrates (LC-HRMS detection of MAA products); format: biochemical, Nostoc linckia NIES-25; conditions: 5 mM amino acid, 50 uM mycosporine-glycine, 5 mM ATP, 0.5 uM MysD, pH 8.0, room temperature, 4 hours
Protocol: The reaction solution contained 50 mM HEPES, pH 8.0, 10 mM MgCl2, 50 uM mycosporine-glycine (MG), 5 mM amino acid substrates, and 5 mM ATP. The reactions were initiated by adding 0.5 uM MysD and then carried out at room temperature for 4 hours. The reactions were then terminated and centrifuged.
In Vitro MysD Reactions. MG was purified from extracts of E. coli expressing MysAB2C by HPLC and used as the substrate for the MysD reactions. The quality of MG was calculated based on its extinction coefficient (28,100 M^−1cm^−1). The MysD reactions included MG (50 μM), Mg^2+ (10 mM), unnatural amino acid substrates (5 mM), and ATP (5 mM) in 50 mM HEPES, pH 8.0. The reactions were initiated by adding MysD (0.5 μM) and then incubated at room temperature for 4 hours. All reactions were quenched by heat inactivation at 95° C. for 10 min. After centrifugation at 20,000×g for 15 min, the clear supernatants were collected for LC-HRMS analysis.
The reactions were terminated and then analyzed in the HPLC and/or LC-MS analysis.
HPLC and LC-MS Analysis. Samples were analyzed on a Shimadzu Prominence UHPLC system (Kyoto, Japan) coupled with a PDA detector. Unless stated elsewhere, the following HPLC procedure was performed. The compounds were separated on a Phenomenex Luna C8 column (4.6×250 mm, 5 μm) using the following HPLC program: 2% B for 15 min, 2-90% B gradient in 2 min, 90% B in 2 min, 90-2% in 2 min, and re-equilibration in 2% B for 6 min. The A phase was water with 0.1% formic acid and the B phase was methanol. The flow rate was set at 0.5 mL/min. LC-HRMS and HRMS/MS experiments were conducted on a Thermo Scientific Q Exactive Focus mass spectrometer with a Dionex Ultimate RSLC 3000 uHPLC system, equipped with the H-ESI II probe on an Ion Max API Source. Methanol (B)/water (A) containing 0.1% formic acid were used as mobile phases. The eluents from the first 3 min were diverted to waste by a diverting valve. MS1 signals were acquired under the Full MS positive ion mode, covering a mass range of m/z 150-2000, with resolution at 35 000 and AGC target at 1×10^6.

[1] = cited from earlier work

SMILES | use as amino acid substrate by MysD to produce MAA products (MysD) | other results
NC[C@@H](N)C(=O)O [(R)-2,3-diaminopropionic acid] | not able to take | –
NC[C@H](N)C(=O)O [(S)-2,3-diaminopropionic acid] | could be used by MysD | –
C=C[C@H](N)C(=O)O [(S)-2-aminobut-3-enoic acid] | could be used by MysD | –
C[C@@H](O)[C@H](N)C(=O)O [L-threonine] | could be used by MysD; also recorded: best substrate | –
COC1=C(NCC(=O)O)C[C@@](O)(CO)CC1=O [MG, mycosporine-glycine] | – | extinction coefficient ([1]; used to calculate the quantity of MG): 28,100 M^−1cm^−1
COC1=C(NCC(=O)O)C[C@@](O)(CO)CC1=N[C@H](C(=O)O)[C@@H](C)O [porphyra-334] | – | maximal absorption wavelength ([1]; natural MAA given as comparison value): 334 nm
